Experimental data: PMC11435058, “Synthesis of New Thiazole-Privileged Chalcones as Tubulin Polymerization Inhibitors with Potential Anticancer Activities” (Pharmaceuticals, 2024)

Legend:
HT29 = assay: NCI-60 anticancer screen (SRB; single dose and five doses); details: Homo sapiens
OVCAR-3 = assay: cells; details: Homo sapiens
T-47D = assay: NCI-60 anticancer screen (SRB; single dose and five doses); details: Homo sapiens, T47D
HOP-92 = assay: as above; details: Homo sapiens
SK-MEL-2 = assay: as above; details: Homo sapiens
786-0 = assay: as above; details: Homo sapiens
SNB-75 = assay: as above; details: Homo sapiens, SNB-75, 48 h, read-out: Growth Percentage
MDA-MB-468 = assay: as above; assay type: cell-based, human
Procedure, shortened: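 Readout was sulforhodamine B staining, read spectrophotometrically as percent growth against untreated controls. This followed a 48 h exposure to one 10μM dose across roughly 60 human tumor lines of the NCI screen.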

U251 = assay: as above; details: Homo sapiens
SK-MEL-28 = assay: as above; details: Homo sapiens
CAKI-1 = assay: as above; details: Homo sapiens
SW-620 = assay: as above; details: Homo sapiens
A549/ATCC = assay: as above; details: Homo sapiens
SF-295 = assay: as above; details: Homo sapiens
SK-OV-3 = assay: as above; details: Homo sapiens
OVCAR-4 = assay: as above; details: Homo sapiens
HL-60(TB) = assay: as above; details: Homo sapiens
UACC-62 = assay: as above; details: Homo sapiens
OVCAR-5 = assay: as above; details: Homo sapiens
MDA-MB-435 = assay: as above; details: Homo sapiens
KM12 = assay: as above; details: Homo sapiens
IGROV1 = assay: as above; details: Homo sapiens
NCI-H460 = assay: as above; details: Homo sapiens
HOP-62 = assay: as above; details: Homo sapiens
TK-10 = assay: as above; details: Homo sapiens

Cc1[nH]c(=S)sc1C(=O)/C=C/c1ccc([N+](=O)[O-])cc1 [2i, (E)-1-(4-Methyl-2-Thioxo-2,3-Dihydrothiazol-5-yl)-3-(4-Nitrophenyl)Prop-2-En-1-One]
GI50 (HT29; HT-29): 10.7 µM | activity at 10 µM (HT29; HT-29, 48 h, read-out: Growth Percentage): 62.8% | CC50 (HT29; HT-29, read-out: LC50): 68.7 µM | IC (TGI) (HT29; HT-29, read-out: TGI): 27.1 µM | GI50 (OVCAR-3; OVCAR-3): 2.22 µM | activity at 10 µM (OVCAR-3; OVCAR-3, 48 h, read-out: Growth Percentage): -6% | CC50 (OVCAR-3; OVCAR-3, read-out: LC50): 16.6 µM | IC (TGI) (OVCAR-3; OVCAR-3, read-out: TGI): 5.28 µM | GI50 (T-47D): 4.96 µM | activity at 10 µM (T-47D; 48 h, read-out: Growth Percentage): 44.3% | CC50 (T-47D; read-out: LC50): > 100 µM | IC (TGI) (T-47D; read-out: TGI): 25.7 µM | GI50 (HOP-92; HOP-92): 12.2 µM | activity at 10 µM (HOP-92; HOP-92, 48 h, read-out: Growth Percentage): 57.6% | CC50 (HOP-92; HOP-92, read-out: LC50): 64.4 µM | IC (TGI) (HOP-92; HOP-92, read-out: TGI): 28 µM | GI50 (SK-MEL-2; SK-MEL-2): 13.6 µM | activity at 10 µM (SK-MEL-2; SK-MEL-2, 48 h, read-out: Growth Percentage): 49.5% | CC50 (SK-MEL-2; SK-MEL-2, read-out: LC50): 62 µM | IC (TGI) (SK-MEL-2; SK-MEL-2, read-out: TGI): 29 µM | GI50 (786-0; 786-0): 3.99 µM | activity at 10 µM (786-0; 786-0, 48 h, read-out: Growth Percentage): 25.6% | CC50 (786-0; 786-0, read-out: LC50): 54 µM | IC (TGI) (786-0; 786-0, read-out: TGI): 17.6 µM | activity at 10 µM (SNB-75): 36% | activity at 10 µM (MDA-MB-468; Homo sapiens, 48 h, MDA-MB-468, dose of 10 μM, read-out: Growth Percentage): -18.9% | GI50 (MDA-MB-468; Homo sapiens, MDA-MB-468, Breast Cancer, five dose): 2.2 µM | CC50 (MDA-MB-468; Homo sapiens, MDA-MB-468, Breast Cancer, five dose, read-out: LC50 (the source's name)): 31.4 µM | TGI (MDA-MB-468; MDA-MB-468, Breast Cancer, five dose): 8 µM | GI50 (U251; U-251): 4.1 µM | activity at 10 µM (U251; U-251, 48 h, read-out: Growth Percentage): 13.7% | CC50 (U251; U-251, read-out: LC50): 53 µM | IC (TGI) (U251; U-251, read-out: TGI): 17 µM | GI50 (SK-MEL-28; SK-MEL-28): 13.7 µM | activity at 10 µM (SK-MEL-28; SK-MEL-28, 48 h, read-out: Growth Percentage): 23.9% | CC50 (SK-MEL-28; SK-MEL-28, read-out: LC50): 52.5 µM | IC (TGI) (SK-MEL-28; SK-MEL-28, read-out: TGI): 26.8 µM | GI50 (CAKI-1; CAKI-1): 13.9 µM | activity at 10 µM (CAKI-1; CAKI-1, 48 h, read-out: Growth Percentage): 31.1% | CC50 (CAKI-1; CAKI-1, read-out: LC50): 52.7 µM | IC (TGI) (CAKI-1; CAKI-1, read-out: TGI): 27.1 µM | GI50 (SW-620; SW-620): 3.59 µM | activity at 10 µM (SW-620; SW-620, 48 h, read-out: Growth Percentage): -44.8% | CC50 (SW-620; SW-620, read-out: LC50): 44.2 µM | IC (TGI) (SW-620; SW-620, read-out: TGI): 13.9 µM | GI50 (A549/ATCC; A549): 17 µM | activity at 10 µM (A549/ATCC; A549, 48 h, read-out: Growth Percentage): 75.7% | CC50 (A549/ATCC; A549, read-out: LC50): 69 µM | IC (TGI) (A549/ATCC; A549, read-out: TGI): 34.2 µM | GI50 (SF-295; SF-295): 16.1 µM | activity at 10 µM (SF-295; SF-295, 48 h, read-out: Growth Percentage): 86.1% | CC50 (SF-295; SF-295, read-out: LC50): 56.5 µM | IC (TGI) (SF-295; SF-295, read-out: TGI): 30.2 µM | GI50 (SK-OV-3; SK-OV-3): 18.6 µM | activity at 10 µM (SK-OV-3; SK-OV-3, 48 h, read-out: Growth Percentage): 108% | CC50 (SK-OV-3; SK-OV-3, read-out: LC50): 76.9 µM | IC (TGI) (SK-OV-3; SK-OV-3, read-out: TGI): 37.8 µM | GI50 (OVCAR-4; OVCAR-4): 14.9 µM | activity at 10 µM (OVCAR-4; OVCAR-4, 48 h, read-out: Growth Percentage): 49.2% | CC50 (OVCAR-4; OVCAR-4, read-out: LC50): 53.8 µM | IC (TGI) (OVCAR-4; OVCAR-4, read-out: TGI): 28.3 µM | GI50 (HL-60(TB); HL-60): 3.05 µM | activity at 10 µM (HL-60(TB); HL-60, 48 h, read-out: Growth Percentage): -5.39% | CC50 (HL-60(TB); HL-60, read-out: LC50): > 100 µM | IC (TGI) (HL-60(TB); HL-60, read-out: TGI): 16.9 µM | GI50 (UACC-62; UACC-62): 10.5 µM | activity at 10 µM (UACC-62; UACC-62, 48 h, read-out: Growth Percentage): 47.5% | IC (TGI) (UACC-62; UACC-62, read-out: TGI): 22.4 µM | GI50 (OVCAR-5; OVCAR-5): 17.8 µM | activity at 10 µM (OVCAR-5; OVCAR-5, 48 h, read-out: Growth Percentage): 110% | CC50 (OVCAR-5; OVCAR-5, read-out: LC50): 58.2 µM | IC (TGI) (OVCAR-5; OVCAR-5, read-out: TGI): 32.2 µM | GI50 (MDA-MB-435; MDA-MB-435): 7.39 µM | activity at 10 µM (MDA-MB-435; MDA-MB-435, 48 h, read-out: Growth Percentage): 3.76% | CC50 (MDA-MB-435; MDA-MB-435, read-out: LC50): 50.9 µM | IC (TGI) (MDA-MB-435; MDA-MB-435, read-out: TGI): 21.1 µM | GI50 (KM12; KM12): 3.8 µM | activity at 10 µM (KM12; KM12, 48 h, read-out: Growth Percentage): -72.5% | CC50 (KM12; KM12, read-out: LC50): 40 µM | IC (TGI) (KM12; KM12, read-out: TGI): 13.6 µM | GI50 (IGROV1; IGROV-1): 4.43 µM | activity at 10 µM (IGROV1; IGROV-1, 48 h, read-out: Growth Percentage): 16.1% | CC50 (IGROV1; IGROV-1, read-out: LC50): 50.8 µM | IC (TGI) (IGROV1; IGROV-1, read-out: TGI): 14.9 µM | GI50 (NCI-H460; NCI-H460): 15.9 µM | activity at 10 µM (NCI-H460; NCI-H460, 48 h, read-out: Growth Percentage): 11.3% | CC50 (NCI-H460; NCI-H460, read-out: LC50): 72.5 µM | IC (TGI) (NCI-H460; NCI-H460, read-out: TGI): 34 µM | GI50 (HOP-62; HOP-62): 6.43 µM | activity at 10 µM (HOP-62; HOP-62, 48 h, read-out: Growth Percentage): 21.6% | CC50 (HOP-62; HOP-62, read-out: LC50): 67.7 µM | IC (TGI) (HOP-62; HOP-62, read-out: TGI): 23.2 µM | GI50 (TK-10; TK-10): 12.4 µM | activity at 10 µM (TK-10; TK-10, 48 h, read-out: Growth Percentage): 12.9% | CC50 (TK-10; TK-10, read-out: LC50): 51.3 µM | IC (TGI) (TK-10; TK-10, read-out: TGI): 25.3 µM
